Here are results for six molecules from patent US20220195455A1, “DELIVERY OF CRISPR/MCAS9 THROUGH EXTRACELLULAR VESICLES FOR GENOME EDITING” (University of Georgia Research Foundation, Inc., priority 2019, published 2022).

For one assay, the system named is PC3 cells. Put plainly: Lipid raft disruption, cholesterol staining. Format: cell-based, human. As to conditions: 1 μM, 24 h.
The subject of a further assay is PC3 or DU145 cells. The assay is described as follows: Lipid raft disruption, Src kinase in EVs by immunoblotting. Format: cell-based, human. As to conditions: 0-1 μM, 24 h. On the technique in general: Immunoblotting shows a protein as a band on a membrane.
Assay [1] concerns DU145, NIH 3T3, SYF1, 22Rv1 cells. Put plainly: Encapsulation of Src family kinase variants into EVs of transduced cells (Western blot, EVs vs TCL). Format: cell-based. As to conditions: for levels of Fyn kinase in EVs: in comparison with Fyn(WT). The method, then: The transfected cells were grown in exosome-free FBS medium and EVs were isolated from the conditioned medium. […] Ten μg of protein from EVs or TCL were loaded. Src protein levels were quantified by Image J software. […] Data were expressed as mean±SEM, ** p<0.01; *** p<0.001. […] The transduced cells were grown in EVs/exosome-free FBS medium with (Lane 4-6 and 10-12) or without (Lane 1-3 and 7-9) 50 μM myristic acid-azide (an analog of myristic acid). The myristoylated proteins from either EVs or TCL were detected using Click chemistry. Ten μg of protein from EVs or TCL were loaded.
EVs were isolated from conditioned medium by sequential ultracentrifugation. […] Ten μg of protein from EVs or TCL were loaded. […] Coomassie staining was used to show equivalent loading of samples. The Src expression level was quantified by Image J software. Data are expressed as mean±SEM, * p<0.05; ** p<0.01; *** p<0.001.
The transduced cells were grown in EVs/exosome-free medium for 24 h and EVs were isolated from the conditioned medium. Ten μg of protein from extracellular vesicles (EVs) or total cell lysates (TCL) were loaded. […] Data are expressed as mean±SEM. * p<0.05; **** p<0.0001; NS: Not significant.
The transduced cells were grown in exosome-free FBS medium. EVs were collected from the conditioned cell culture medium. Expression levels of Src in extracellular vesicles (EVs) and total cell lysates (TCL) from the transduced cells were evaluated by Western blotting. 10 μg of protein from Exo or TCL were loaded. […] The Src protein was quantified by Image J software. […] Data are expressed as mean±SEM. ** p<0.01.
To isolate EVs from the cell culture medium, the cell lines were grown in ATCC recommended medium in a 150-mm petri-dish. […] The size, zeta potential, and concentration of EVs were measured by nanoparticle tracking analysis (NTA, Particle Metrix, Germany) with ZetaView software for data record and analysis.
The total cell lysate and EVs dissolved in RIPA buffer were subjected to the standard immunoblotting analysis. […] The band intensity was quantified by Image J software.

A further assay concerns the target T1, full length NMT1 protein (Homo sapiens, UniProt P30419).
T1 construct: Km and Vmax catalyzed by full length NMT1 protein were calculated
T1 sequence (P30419 1-496): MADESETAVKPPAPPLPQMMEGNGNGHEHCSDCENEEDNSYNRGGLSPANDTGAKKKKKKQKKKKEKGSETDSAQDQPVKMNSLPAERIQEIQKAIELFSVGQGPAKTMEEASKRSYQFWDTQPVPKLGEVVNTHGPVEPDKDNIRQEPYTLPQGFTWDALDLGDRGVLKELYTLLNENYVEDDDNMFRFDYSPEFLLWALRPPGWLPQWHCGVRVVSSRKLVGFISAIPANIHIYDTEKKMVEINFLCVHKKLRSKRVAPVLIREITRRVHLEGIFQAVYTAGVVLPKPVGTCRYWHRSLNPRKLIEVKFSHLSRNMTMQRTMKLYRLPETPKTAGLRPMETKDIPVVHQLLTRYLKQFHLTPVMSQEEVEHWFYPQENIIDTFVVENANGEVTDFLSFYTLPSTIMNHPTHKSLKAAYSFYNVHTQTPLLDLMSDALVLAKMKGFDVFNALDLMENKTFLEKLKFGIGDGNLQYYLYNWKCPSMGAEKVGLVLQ
The assay is described as follows: NMT1 activity assay (CoA release, fluorescence).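 Also: released CoA from NMT1-catalysed myristoylation of octapeptide substrates detected by fluorescence after reaction with a maleimide coumarin dye (excitation 390 nm, emission 479 nm), triplicate points.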 It counts as biochemical. As to conditions: octapeptide as NMT1 substrate.

Description for PC3 cells: PC3 cells were treated with vehicle control or 1 μM Filipin for 24 h. The treated cells were visualized under a fluorescence microscope. The treated cells were stained with Filipin III and representative images were taken.
Description for PC3 or DU145 cells: PC3 and DU145 cells were grown overnight. The medium was replaced with the same growth medium but containing EVs/exosome-free FBS with DMSO (control) or Filipin III (0-1 μM) for 24 h to disrupt lipid rafts. The EVs were isolated from the conditioned medium by sequential centrifugation as described above. The isolated EVs and cells were lysed with RIPA buffer for immunoblotting analysis.
Description for full length NMT1 protein: The amount of the released CoA were reacted with 7-diethylamino-3-(4′-maleimidylphenyl)-4-methylcoumarin. The assay was performed in 96-well black microplates. The produced fluorescence intensity was measured by Flex Station 3, and detected by microplate reader (excitation at 390 nm; emission at 479 nm).
The amount of the released CoA were reacted with 7-diethylamino-3-(4′-maleimidylphenyl)-4-methylcoumarin. The assay was performed in 96-well black microplates. The produced fluorescence intensity was measured by Flex Station 3, and detected by microplate reader (excitation at 390 nm; emission at 479 nm). To measure the Km and Vmax of NMT1 which catalyzed various octapeptides substrates derived from various proteins, twenty-five octapeptides were synthesized by GenScript. […] Each data point has three repeats.
Km and Vmax catalyzed by full length NMT1 protein were calculated.

`CCCCC[C@@H](O)[C@H]1C(=O)O[C@H](C)[C@@H](O)/C=C/C=C/C=C/C=C/C=C(\C)[C@@H](O)C[C@H](O)C[C@H](O)C[C@H](O)C[C@H](O)C[C@H](O)C[C@@H]1O` [Filipin III]: in the assay with PC3 cells, the cholesterol levels result is “significantly decreased”. Besides, the “expression levels of Src kinase in EVs” value in the assay on PC3 or DU145 cells was “did not significantly change”. As to “Fyn(C3S/C6S): Fyn mutant with loss of palmitoylation (GSVQSK)”, the “levels of Fyn kinase in EVs” value in assay [1] is “significantly increased”. In the case of “Fyn(G2A): Fyn mutant with loss of myristoylation (ACVQCK)”, the “levels of Fyn kinase in EVs” value in assay [1] is on record as “significantly inhibited”. Consider Fyn(WT): wild type Fyn kinase (GCVQCK), for which, in assay [1], the “levels of kinase in EVs in comparison with total cell lysate” value is reported as “decreased”.

With GSCCSCPD (SEQ ID NO: 370) [FRS2], in the assay with full length NMT1 protein, the Km was determined as 28.2 µM and the Vmax stood at 54.7 µM/min. The corresponding values for GQSQSGGH (SEQ ID NO: 364) [PSMC1] are 40 µM and 9.6 µM/min.

The term Km denotes the substrate concentration at which the rate is half of its maximum. For orientation: Vmax means the top rate of the reaction or transport when substrate is in excess.
